Measured values from ChEMBL document CHEMBL1201862, “PubChem BioAssay data set” (2004).
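Step 1: Grow cells in 96-well plates. Step 2: Expose to compound for 48 hours at 5 concentrations. Step 3: Interpolate endpoints linearly; if unreached, use highest concentration. Abbreviation: GI50, concentration required for 50% inhibition of growth.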 The source made the active and inactive calls. Rule as the data show it: active = GI50 up to about 1.1 µM and inactive = higher.

Tests used:
Test in all cases: inhibition of tumour cell growth, NCI panel, 48 h
786-0 = tested on: 786-0
BT-549 = tested on: BT-549
HCT-15 = tested on: HCT-15
HT-29 = tested on: HT-29
M14 = tested on: M14
MCF7 = tested on: MCF7
MDA-N = tested on: MDA-N
MOLT-4 = tested on: MOLT-4
NCI-H226 = tested on: NCI-H226
NCI-H522 = tested on: NCI-H522
NCI/ADR-RES = tested on: NCI/ADR-RES
OVCAR-4 = tested on: OVCAR-4
OVCAR-5 = tested on: OVCAR-5
PC-3 = tested on: PC-3
RPMI-8226 = tested on: RPMI-8226
SF-268 = tested on: SF-268
SR = tested on: SR
UACC-257 = tested on: UACC-257
UO-31 = tested on: UO-31

Compound | GI50 (786-0) | GI50 (BT-549) | GI50 (HCT-15) | GI50 (HT-29) | GI50 (M14) | GI50 (MCF7) | GI50 (MDA-N) | GI50 (MOLT-4) | GI50 (NCI-H226) | GI50 (NCI-H522) | GI50 (NCI/ADR-RES) | GI50 (OVCAR-4) | GI50 (OVCAR-5) | GI50 (PC-3) | GI50 (RPMI-8226) | GI50 (SF-268) | GI50 (SR) | GI50 (UACC-257) | GI50 (UO-31)
CC1(/C=C/CCSc2ccccc2)CC(=O)C2CC1C2(C)C (stereo not given) | 20.2 µM (inactive) | 9.18 µM (inactive) | 15.8 µM | 12.4 µM (inactive) | 23.8 µM (inactive) | 22.6 µM (inactive) | 26.9 µM (inactive) | 4.67 µM (inactive) | 24.8 µM (inactive) | 13 µM (inactive) | 11 µM (inactive) | 38.5 µM (inactive) | 44.9 µM (inactive) | 6.08 µM (inactive) | 3.79 µM (inactive) | 28.5 µM (inactive) | 3.19 µM (inactive) | 14.7 µM (inactive) | 5.61 µM (inactive)
Cc1c(N2C(=O)C(Cl)C2/C=C/c2ccccc2)c(=O)n(-c2ccccc2)n1C (stereo not given) | 24.9 µM (inactive) | 33.4 µM (inactive) | – | 24.4 µM (inactive) | 17.2 µM (inactive) | 24.7 µM (inactive) | 14.4 µM (inactive) | 13.4 µM (inactive) | 25.1 µM (inactive) | 14.4 µM (inactive) | > 100 µM (inactive) | 29.5 µM (inactive) | 43.9 µM (inactive) | 31.6 µM (inactive) | 11.3 µM (inactive) | 29.6 µM (inactive) | 17.5 µM (inactive) | 4.68 µM (inactive) | 28.1 µM (inactive)
CC(C)SC1SCC2C(=O)N(C)C3(CC3C)C(=O)OCC(NC(=O)c3nc4ccccc4cc3O)C(=O)NC(C)C(=O)N(C)C1C(=O)N(C)C1(CC1C)C(=O)OCC(NC(=O)c1nc3ccccc3cc1O)C(=O)NC(C)C(=O)N2C (stereo not given) | < 0.0001 µM (active) | 0.01 µM (active) | < 0.0001 µM | < 0.0001 µM (active) | < 0.0001 µM (active) | < 0.0001 µM (active) | < 0.0001 µM (active) | < 0.0001 µM (active) | < 0.0001 µM (active) | < 0.0001 µM (active) | 0.00446 µM (active) | < 0.0001 µM (active) | < 0.0001 µM (active) | < 0.0001 µM (active) | < 0.0001 µM (active) | < 0.0001 µM (active) | < 0.0001 µM (active) | < 0.0001 µM (active) | < 0.0001 µM (active)
C=C1C(=O)O[C@@H]2/C=C(\C)CC/C=C(/COC(C)=O)C[C@@H](OC(C)=O)[C@@H]12 | 5.18 µM (inactive) | 3.91 µM (inactive) | 3.28 µM | 4.24 µM (inactive) | 12.6 µM (inactive) | 3.71 µM (inactive) | 6 µM (inactive) | 3.45 µM (inactive) | 19.8 µM (inactive) | 1.16 µM (inactive) | 17.9 µM (inactive) | 20.2 µM (inactive) | 17.4 µM (inactive) | 16.1 µM (inactive) | 3.39 µM (inactive) | 11.3 µM (inactive) | 2.16 µM (inactive) | 13.4 µM (inactive) | 8.87 µM (inactive)
COC1Cc2c(C)c(OC(C)=O)c3cccnc3c2O1 (stereo not given) | 18.2 µM (inactive) | 19.7 µM (inactive) | 10.4 µM | 43.8 µM (inactive) | 14.5 µM (inactive) | 18.9 µM (inactive) | 20.8 µM (inactive) | 13.8 µM (inactive) | 39 µM (inactive) | 2.75 µM (inactive) | 17.6 µM (inactive) | 16 µM (inactive) | 18.2 µM (inactive) | 36.7 µM (inactive) | 28.6 µM (inactive) | 16 µM (inactive) | 15.6 µM (inactive) | 16 µM (inactive) | 13.9 µM (inactive)
CN(C)CCCNC(=S)S | > 100 µM (inactive) | > 100 µM (inactive) | > 100 µM | > 100 µM (inactive) | > 100 µM (inactive) | > 100 µM (inactive) | > 100 µM (inactive) | > 100 µM (inactive) | > 100 µM (inactive) | > 100 µM (inactive) | > 100 µM (inactive) | > 100 µM (inactive) | > 100 µM (inactive) | > 100 µM (inactive) | > 100 µM (inactive) | > 100 µM (inactive) | > 100 µM (inactive) | > 100 µM (inactive) | –
Clc1cc2nnn(C3CCCCO3)c2cc1Cl (stereo not given) | > 100 µM (inactive) | 41.5 µM (inactive) | 96.6 µM | 63.1 µM (inactive) | > 100 µM (inactive) | > 100 µM (inactive) | > 100 µM (inactive) | 75.7 µM (inactive) | 23.5 µM (inactive) | 42.5 µM (inactive) | 48.3 µM (inactive) | > 100 µM (inactive) | > 100 µM (inactive) | 58.1 µM (inactive) | > 100 µM (inactive) | 42.3 µM (inactive) | 51.6 µM (inactive) | 60.7 µM (inactive) | 30.7 µM (inactive)
OC1(c2ccc(Cl)cc2)c2ccccc2-c2nc3ccccc3n21 (stereo not given) | 49.2 µM (inactive) | > 100 µM (inactive) | > 100 µM | 72.6 µM (inactive) | > 100 µM (inactive) | 95.3 µM (inactive) | > 100 µM (inactive) | > 100 µM (inactive) | 45.9 µM (inactive) | 66.8 µM (inactive) | 67.1 µM (inactive) | > 100 µM (inactive) | > 100 µM (inactive) | 44.3 µM (inactive) | 49.3 µM (inactive) | > 100 µM (inactive) | 74.5 µM (inactive) | > 100 µM (inactive) | > 100 µM (inactive)
